Common to all, as to assay: whole-cell patch clamp, HEK293
What all share (type): cell-based
Common to all, as to details: -60 mV, 20-24 °C, pH 7.4; agonist
In general terms: The patch-clamp technique gives a direct electrical read-out from membranes.

One experiment concerns T1, α2 GlyR (homomeric).
T1 construct: gene GLRA2; recombinant homomeric receptor expressed in HEK293 cells
The source says:
whole-cell patch clamp, HEK293 on α2 GlyR (homomeric)

The next experiment has as its system T2, α1 GlyR (homomeric).
T2 construct: gene GLRA1; recombinant homomeric receptor expressed in HEK293 cells; EGFP co-transfected
An excerpt: whole-cell patch clamp, HEK293 on α1 GlyR (homomeric)

Another experiment deals with T3, α1β GlyR (heteromeric).
T3 construct: gene GLRA1; recombinant heteropentamer in HEK293 cells, excess beta cDNA (1 μg alpha/EGFP plus 4 μg beta)
An excerpt:
whole-cell patch clamp, HEK293 on α1β GlyR (heteromeric)

Molecules are shown by their SMILES.

Our source for the EC50 values is publication PMC8637530, “Modulatory Actions of the Glycine Receptor β Subunit on the Positive Allosteric Modulation of Ethanol in α2 Containing Receptors” (Frontiers in Molecular Neuroscience, 2021).

In the case of `NCC(=O)O` [Glycine], the EC50 turned out to be 86 ± 2 µM in the experiment with α2 GlyR (homomeric), […] in the experiment with α1 GlyR (homomeric) and […] with α1β GlyR (heteromeric).

In general, EC50 refers to the concentration needed to bring the measured effect to its halfway point.
